Experimental data taken from patent publication US7829728B2, “Diarymethyl and related compounds” (Theravance, Inc., priority 2003, dated 2010).

Test system: guinea pigs, pilocarpine-evoked salivation
Assay: Inhalation guinea pig salivation assay (Assay Test Procedure H)
Format: in vivo
Conditions: ratio of anti-sialagogue ID50 to bronchoprotective ID50, guinea pig
Protocol: Guinea pigs (Charles River, Wilmington, Mass.) weighing 200-350 g are acclimated to the in-house guinea pig colony for at least 3 days following arrival. Test compound or vehicle are dosed via inhalation (IH) over a 10 minute time period in a pie shaped dosing chamber (R+S Molds, San Carlos, Calif.). Test solutions are dissolved in sterile water and delivered using a nebulizer filled with 5.0 mL of dosing solution. Guinea pigs are restrained in the inhalation chamber for 30 minutes. During this time, guinea pigs are restricted to an area of approximately 110 sq. cm. This space is adequate for the animals to turn freely, reposition themselves, and allow for grooming. […] Upon completion of nebulization, guinea pigs are evaluated at 1.5, 6, 12, 24, 48, or 72 hrs after treatment.
Guinea pigs are anesthetized one hour before testing with an intramuscular (IM) injection of a mixture of ketamine 43.75 mg/kg, xylazine 3.5 mg/kg, and acepromazine 1.05 mg/kg at an 0.88 mL/kg volume. […] Saliva is collected for 10 minutes, at which point the gauze pad is weighed and the difference in weight recorded to determine the amount of accumulated saliva (in mg). The mean amount of saliva collected for animals receiving the vehicle and each dose of test compound is calculated. […] Results are calculated using result means (n=3 or greater). […]

For `NC(=O)C(c1ccccc1)(c1ccccc1)[C@@H]1CCN(CCC(=O)NCCCCCNC[C@H](O)c2ccc(O)c3[nH]c(=O)ccc23)C1` [Example 3, 3-[(S)-3-(Carbamoyldiphenylmethyl)pyrrolidin-1-yl]-N-{5-[(R)-2-hydroxy-2-(8-hydroxy-2-oxo-1,2-dihydroquinolin-5-yl)ethylamino]pentyl}propionamide], the apparent lung-selectivity index was “greater than 5”.
